Experimental data reported in ChEMBL document CHEMBL5137086, “Discovery of 1-(Hetero)aryl-β-carboline Derivatives as IDO1/TDO Dual Inhibitors with Antidepressant Activity” (J Med Chem, 2022).
The source made the active and inactive calls. The calls are words filed in the database; no cut-off is given here.

Key:
BV-2 [1] = assay: Antiinflammatory activity in LPS stimulated mouse BV-2 cells assessed as reduction in TNF-alpha expression at 0.5 to 2 uM pretreated with compound for 1 hr followed by LPS stimulation and measured after 24 hrs by qRT-PCR analysis; type: functional, cell-based; conditions: dose 0.5-2 µM, time 25.0 hrs
[2] = Acute toxicity in mouse assessed as change in body weight at 10 to 20 mg/kg, ip administered once daily and measured every day for 20 days; type: organism-based; conditions: in vivo, 480 h, dose 10-20 mg/kg, time 20 day
Mus musculus [3] = assay: Antidepressant activity in LPS induced mouse model assessed as suppression of microglia activation in hippocampus at 20 mg/kg, ip pretreated with compound administered once daily for 2 days followed by LPS injection; type: functional, organism-based; conditions: time 2.0 day
Mus musculus [4] = assay: Antidepressant activity in LPS induced mouse model assessed as rescue of decrease in immobility time at 20 mg/kg, ip pretreated with compound administered once daily for 2 days followed by LPS injection by tail suspension test; type: functional, organism-based; conditions: time 2.0 day
Mus musculus [5] = assay: Antiinflammatory activity in LPS induced mouse assessed as rescue of increase in IDO1 expression in activated microglia at 20 mg/kg, ip pretreated with compound administered once daily for 2 days followed by LPS injection by immunofluorescence analysis; type: functional, organism-based; conditions: time 2.0 day
Mus musculus [6] = assay: Downregulation of IDO1 expression in hippocampus of LPS induced mouse at 20 mg/kg, ip pretreated with compound administered once daily for 2 days followed by LPS injection by Western blotting analysis; type: functional, organism-based; conditions: time 2.0 day
BV-2 [7] = assay: Antiinflammatory activity in LPS stimulated mouse BV-2 cells assessed as reduction in COX2 expression at 0.5 to 2 uM pretreated with compound for 1 hr followed by LPS stimulation and measured after 24 hrs by qRT-PCR analysis; type: functional, cell-based; conditions: dose 0.5-2 µM, time 25.0 hrs
BV-2 [8] = assay: Antiinflammatory activity in LPS stimulated mouse BV-2 cells assessed as reduction in iNOS expression at 0.5 to 2 uM pretreated with compound for 1 hr followed by LPS stimulation and measured after 24 hrs by qRT-PCR analysis; type: functional, cell-based; conditions: dose 0.5-2 µM, time 25.0 hrs
[9] = Bioavailability in C57BL/6J mouse at 20 mg/kg, […] measured up to 24 hrs by LC-MS/MS analysis; type: ADME, organism-based; conditions: in vivo
[10] = MRT (0 to infinity) in C57BL/6J mouse at 20 mg/kg, iv measured up to 24 hrs by LC-MS/MS analysis; type: ADME, organism-based; conditions: in vivo
[11] = Acute toxicity in mouse assessed as pathological changes in kidney at 10 to 20 mg/kg, ip administered once daily for 20 days by hematoxyin-eosin staining based analysis; type: organism-based; conditions: in vivo, 480 h, dose 10-20 mg/kg, time 20 day
[12] = Volume of distribution at steady state in C57BL/6J mouse at 20 mg/kg, iv measured up to 24 hrs by LC-MS/MS analysis; type: ADME, organism-based; conditions: in vivo, read-out: Vdss
[13] = Acute toxicity in mouse assessed as pathological changes in liver at 30 mg/kg, ip administered once daily for 20 days by hematoxyin-eosin staining based analysis; type: organism-based; conditions: in vivo, 480 h, time 20 day
Mus musculus [14] = assay: Antidepressant activity in LPS induced mouse model assessed as rescue of decrease in immobility time at 20 mg/kg, ip pretreated with compound administered once daily for 2 days followed by LPS injection by forced swim test; type: functional, organism-based; conditions: time 2.0 day
[15] = Half life in C57BL/6J mouse at 20 mg/kg, iv measured up to 24 hrs by LC-MS/MS analysis; type: ADME, organism-based; conditions: in vivo
[16] = Acute toxicity in mouse assessed as pathological changes in liver at 10 to 20 mg/kg, ip administered once daily for 20 days by hematoxyin-eosin staining based analysis; type: organism-based; conditions: in vivo, 480 h, dose 10-20 mg/kg, time 20 day
[17] = Acute toxicity in mouse assessed as reduction in body weight at 30 mg/kg, ip administered once daily and measured every day for 20 days; type: organism-based; conditions: in vivo, 480 h, time 20 day
[18] = Cmax in C57BL/6J mouse at 20 mg/kg, ip measured up to 24 hrs by LC-MS/MS analysis; type: ADME, organism-based; set-up: dose 20 mg/kg, time < 24 hrs, route ip; conditions: in vivo
[19] = Cmax in C57BL/6J mouse at 20 mg/kg, iv measured up to 24 hrs by LC-MS/MS analysis; type: ADME, organism-based; set-up: time < 24 hrs, dose 20 mg/kg, route iv; conditions: in vivo
[20] = Half life in C57BL/6J mouse at 20 mg/kg, ip measured up to 24 hrs by LC-MS/MS analysis; type: ADME, organism-based; conditions: in vivo
[21] = biological target: T1, Tryptophan 2,3-dioxygenase (Homo sapiens, UniProt P48775); assay: Inhibition of TDO (unknown origin) assessed as reduction in N-formylkynurenine formation using L-tryptophan as substrate at 50 uM incubated for 75 mins by UV absorbance based analysis relative to control
Target sequence in this assay (P48775 whole entry, looked up): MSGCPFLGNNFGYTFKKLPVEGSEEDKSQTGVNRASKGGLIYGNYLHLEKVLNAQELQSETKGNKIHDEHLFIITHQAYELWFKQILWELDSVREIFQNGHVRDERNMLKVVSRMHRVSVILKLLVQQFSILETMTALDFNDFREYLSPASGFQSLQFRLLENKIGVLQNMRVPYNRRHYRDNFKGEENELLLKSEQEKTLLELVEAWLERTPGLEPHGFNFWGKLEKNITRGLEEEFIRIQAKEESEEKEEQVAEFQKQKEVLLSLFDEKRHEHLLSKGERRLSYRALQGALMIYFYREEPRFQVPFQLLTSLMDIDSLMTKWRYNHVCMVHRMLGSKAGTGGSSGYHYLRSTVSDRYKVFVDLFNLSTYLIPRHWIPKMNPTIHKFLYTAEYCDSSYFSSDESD

Mus musculus [22] = assay: Antiinflammatory activity in LPS induced mouse assessed as rescue of increase in TNF-alpha expression in activated microglia at 20 mg/kg, ip pretreated with compound administered once daily for 2 days followed by LPS injection; type: functional, organism-based; conditions: time 2.0 day
BV-2 [23] = assay: Antiinflammatory activity in LPS stimulated mouse BV-2 cells assessed as reduction in IL-1beta expression at 0.5 to 2 uM pretreated with compound for 1 hr followed by LPS stimulation and measured after 24 hrs by qRT-PCR analysis; type: functional, cell-based; conditions: dose 0.5-2 µM, time 25.0 hrs
Mus musculus [24] = assay: Downregulation of kynurenine level in brain of LPS induced mouse at 20 mg/kg, ip pretreated with compound administered once daily for 2 days followed by LPS injection by UHPLC-HRMS analysis; type: functional, organism-based; conditions: time 2.0 day
[25] = biological target: T1, Tryptophan 2,3-dioxygenase; assay: Inhibition of TDO (unknown origin) assessed as reduction in N-formylkynurenine formation using L-tryptophan as substrate incubated for 75 mins by UV absorbance based analysis
Target sequence in this assay (P48775 whole entry): as the sequence (P48775 whole entry, looked up) above

Mus musculus [26] = assay: Antiinflammatory activity in LPS induced mouse assessed as reduction in iNOS expression in hippocampus at 20 mg/kg, ip pretreated with compound administered once daily for 2 days followed by LPS injection by qPCR analysis; type: functional, organism-based; conditions: time 2.0 day
[27] = MRT (0 to infinity) in C57BL/6J mouse at 20 mg/kg, ip measured up to 24 hrs by LC-MS/MS analysis; type: ADME, organism-based; conditions: in vivo
[28] = AUC (0 to 24 hrs) in C57BL/6J mouse at 20 mg/kg, ip measured up to 24 hrs by LC-MS/MS analysis; type: ADME, organism-based; set-up: dose 20 mg/kg, time < 24 hrs, route ip; conditions: in vivo
[29] = biological target: Indoleamine 2,3-dioxygenase 1 (Homo sapiens, UniProt P14902); assay: Inhibition of IDO1 (unknown origin) assessed as reduction in kynurenine production using L-tryptophan as substrate at 50 uM incubated for 1 hr by absorbance based microplate reader analysis relative to control
Indoleamine 2,3-dioxygenase 1, sequence (P14902 whole entry, looked up): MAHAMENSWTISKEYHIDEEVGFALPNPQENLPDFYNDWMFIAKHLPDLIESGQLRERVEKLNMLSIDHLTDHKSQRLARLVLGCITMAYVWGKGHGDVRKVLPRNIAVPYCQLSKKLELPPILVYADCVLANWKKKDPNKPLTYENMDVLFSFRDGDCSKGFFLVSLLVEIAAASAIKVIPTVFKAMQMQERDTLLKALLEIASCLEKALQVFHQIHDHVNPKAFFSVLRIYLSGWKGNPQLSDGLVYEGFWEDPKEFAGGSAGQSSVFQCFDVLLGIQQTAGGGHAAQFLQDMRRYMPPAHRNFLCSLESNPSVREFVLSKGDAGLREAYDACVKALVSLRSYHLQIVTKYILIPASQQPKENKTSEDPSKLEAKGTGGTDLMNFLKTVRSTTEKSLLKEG

[30] = Acute toxicity in mouse assessed as pathological changes in heart at 10 to 20 mg/kg, ip administered once daily for 20 days by hematoxyin-eosin staining based analysis; type: organism-based; conditions: in vivo, 480 h, dose 10-20 mg/kg, time 20 day
[31] = Acute toxicity in mouse assessed as pathological changes in spleen at 10 to 20 mg/kg, ip administered once daily for 20 days by hematoxyin-eosin staining based analysis; type: organism-based; conditions: in vivo, 480 h, dose 10-20 mg/kg, time 20 day
Mus musculus [32] = assay: Antiinflammatory activity in LPS induced mouse assessed as reduction in TNF-alpha expression in hippocampus at 20 mg/kg, ip pretreated with compound administered once daily for 2 days followed by LPS injection by qPCR analysis; type: functional, organism-based; conditions: time 2.0 day
[33] = AUC (0 to 24 hrs) in C57BL/6J mouse at 20 mg/kg, iv measured up to 24 hrs by LC-MS/MS analysis; type: ADME, organism-based; set-up: dose 20 mg/kg, time < 24 hrs, route iv; conditions: in vivo

SMILES: c1ccc2c(c1)[nH]c1c(-c3c[nH]cn3)nccc12
- Activity (BV-2 [1]): Active
- Activity [2]: Non-Toxic
- Activity (Mus musculus [3]): Active
- Activity (Mus musculus [4]): Active
- Activity (Mus musculus [5]): Active
- Activity (Mus musculus [6]): Active
- Activity (BV-2 [7]): Active
- Activity (BV-2 [8]): Active
- bioavailability [9]: 52.5%
- MRT inf [10]: 1.85 h
- Activity [11]: Non-Toxic
- Vd [12]: 4.35 L/kg
- Activity [13]: Toxic
- Activity (Mus musculus [14]): Active
- half-life [15]: 2.31 h
- Activity [16]: Non-Toxic
- Activity [17]: Toxic
- Cmax [18]: 3880 ng/mL
- Cmax [19]: 5540 ng/mL
- half-life [20]: 0.77 h
- inhibition [21]: 92%
- Activity (Mus musculus [22]): Active
- Activity (BV-2 [23]): Active
- Activity (Mus musculus [24]): Active
- IC50 [25]: 1150 nM
- Activity (Mus musculus [26]): Active
- MRT inf [27]: 1.04 h
- AUC(0-t) at 24 h [28]: 4490 ng·h/mL
- inhibition [29]: 98%
- Activity [30]: Non-Toxic
- Activity [31]: Non-Toxic
- Activity (Mus musculus [32]): Active
- AUC(0-t) at 24 h [33]: 8550 ng·h/mL
